From US9493775B2, “Inhibition of the glycine cleavage system for treatment of cancer” (Whitehead Institute for Biomedical Research, priority 2012, dated 2016)

Legend:
[1] = test system: P protein; details: cited from earlier work
[2] = target: T protein (Homo sapiens, UniProt P48728); details: cited from earlier work
[3] = target: T1, glycine cleavage system (GCS) (Homo sapiens, UniProt P23378); details: cited from earlier work
T1 sequence (P23378 36-1020): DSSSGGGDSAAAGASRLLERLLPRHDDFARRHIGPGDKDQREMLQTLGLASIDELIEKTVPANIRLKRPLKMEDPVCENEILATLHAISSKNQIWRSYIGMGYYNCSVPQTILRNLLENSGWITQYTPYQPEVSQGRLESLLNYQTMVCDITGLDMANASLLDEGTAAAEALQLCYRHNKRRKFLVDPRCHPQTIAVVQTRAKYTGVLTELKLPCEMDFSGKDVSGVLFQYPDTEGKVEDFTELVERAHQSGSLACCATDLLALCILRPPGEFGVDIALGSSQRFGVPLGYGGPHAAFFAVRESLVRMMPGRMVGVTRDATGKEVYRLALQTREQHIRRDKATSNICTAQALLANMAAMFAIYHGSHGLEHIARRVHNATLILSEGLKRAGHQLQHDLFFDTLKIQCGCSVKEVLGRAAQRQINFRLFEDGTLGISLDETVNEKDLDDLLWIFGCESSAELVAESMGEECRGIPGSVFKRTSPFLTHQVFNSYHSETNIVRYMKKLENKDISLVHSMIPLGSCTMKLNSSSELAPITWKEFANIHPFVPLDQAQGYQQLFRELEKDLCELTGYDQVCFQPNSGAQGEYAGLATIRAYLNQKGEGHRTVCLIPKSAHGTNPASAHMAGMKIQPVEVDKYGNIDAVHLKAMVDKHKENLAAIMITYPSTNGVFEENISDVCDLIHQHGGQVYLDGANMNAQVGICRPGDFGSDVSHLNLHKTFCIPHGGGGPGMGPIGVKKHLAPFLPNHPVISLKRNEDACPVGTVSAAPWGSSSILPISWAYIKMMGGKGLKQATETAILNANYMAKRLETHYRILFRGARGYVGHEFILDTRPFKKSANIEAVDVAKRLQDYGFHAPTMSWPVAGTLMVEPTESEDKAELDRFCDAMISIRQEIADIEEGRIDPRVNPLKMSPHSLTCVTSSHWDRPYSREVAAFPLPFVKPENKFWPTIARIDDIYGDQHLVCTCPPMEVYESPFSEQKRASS

[4] = test system: GLDC-knockdown-sensitive cells; experiment: Cysteamine treatment, cell viability by ATP assay; assay type: cell-based; details: 1 mM, 4 days
Experimental: FIGS. 3A-3C. GLDC shRNA sensitive lines, but not insensitive lines, are also sensitive to pharmacological inhibition of the GCS, and to shRNA knockdown of another GCS component (GCSH). (A) Various cell lines were treated with 1 mM cysteamine for 4 days. […] (C) Various cells lines were infected with GS1, GS2, GS3, or GS4 shRNAs for 6 days. Cell viability was measured and data from multiple experiments is shown ±S.D. The blue line indicates cell viability for each cell line when infected with control (GFP) shRNA, which was set as 100%. Thus, data for each cell line is shown as a % relative to viability when infected with shGFP. For (A) and (C), asterisk indicates a statistically significant decrease in cell viability following cysteamine treatment relative to untreated (p<0.05). Red font indicates GLDC shRNA-sensitive lines, and blue font indicates insensitive lines.
We assessed the effect of treatment with cysteamine, an inhibitor of the GCS (9) on a number of the tumor cell lines that had been examined in the experiments described in Example 3. Cells were treated with cysteamine (1 mM) for 4 days, and cell viability was then assessed using an ATP assay.

[5] = test system: glycine cleavage activity in the liver; details: administration to rats; cited from earlier work
[6] = patients with NKH; cited from earlier work

T protein, sequence (P48728 29-403): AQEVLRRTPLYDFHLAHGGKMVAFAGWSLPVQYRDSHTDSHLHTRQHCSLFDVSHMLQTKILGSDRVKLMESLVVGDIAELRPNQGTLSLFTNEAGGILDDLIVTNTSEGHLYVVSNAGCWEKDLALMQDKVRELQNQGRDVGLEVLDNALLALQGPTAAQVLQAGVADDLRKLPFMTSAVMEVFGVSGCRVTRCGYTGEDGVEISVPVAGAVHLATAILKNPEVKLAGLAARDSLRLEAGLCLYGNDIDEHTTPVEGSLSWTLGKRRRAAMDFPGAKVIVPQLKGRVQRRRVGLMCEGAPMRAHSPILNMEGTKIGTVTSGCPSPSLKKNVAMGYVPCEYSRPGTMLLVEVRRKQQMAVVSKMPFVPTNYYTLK

Structure (SMILES): NOCC(=O)O [carboxymethoxylamine]
- inhibition of P protein [1]: reported to inhibit P protein

Structure (SMILES): CN1c2c(nc(N)[nH]c2=O)NCC1CNc1ccc(C(=O)N[C@@H](CCC(=O)O)C(=O)O)cc1 (stereo partly drawn) [5-methyltetrahydrofolate]
- inhibition of T protein [2]: inhibits T protein

Structure (SMILES): NCCS [cysteamine, 2-aminoethanethiol]
- inhibition of the GCS [3]: known inhibitor of the GCS
- cell viability (ATP assay) [4]: impaired viability

Structure (SMILES): CCCC(CCC)C(=O)O [valproic acid, 2-propylpentanoic acid]
- glycine cleavage activity in the liver [5]: inhibit glycine cleavage activity in the liver
- P protein activity in vitro ([1]; in vitro): reduced
- seizure frequency [6]: increase in seizure frequency

Structure (SMILES): N#CCN [aminoacetonitrile]
- inhibition of the GCS [3]: reported to inhibit the GCS

Structure (SMILES): C#CCN [propargylamine, 3-Amino-1-propyne]
- inhibition of the GCS [3]: reported to inhibit the GCS
